From patent US10716778B2, “Use of compounds that are able to increase the serum IGF-1 level for the preparation of a therapeutical composition for treatment of various disease states associated with a reduced IGF-1 serum level in humans and animals” (VEIJLEN N.V., priority 2003, dated 2020)
Values joined by “and” are separate entries in the source; they are usually repeats but may differ in a detail not shown here. Equal values may be shown once.

Legend:
IGF-1 [1] = test: Plasma IGF-1 level in eight CFS patients treated with the composition (Example 1); assay type: in vivo, human
Description: Eight patients suffering from severe chronic fatigue syndrome (CFS) were studied over a 5- to 7-month period. In this period, they were treated with a therapeutical composition of the disclosure in the form of a food supplement, which comprised IAA as the active ingredient. All subjects were unable to do their job or to perform very light physical exercise.
Before entering the study, the subjects underwent a careful medical examination to exclude any other disease. Blood was assayed for insulin-like growth factor 1 (IGF-1) and its major binding protein IGF-BP3 was sampled at 0, 1, 3 and 5 to 7 months of treatment because the total amount of IGF-1 in serum minus the amount of IGF-BP3 is the amount of free IGF-1. Free IGF-1 is the active serum fraction. Also at 0, 1, 3 and 5 to 7 months, job participation and physical activities were registered and calculated as percentage of normal, before disease pattern.
Eight women varying in age from 25 to 53 years having severe complaints of fatigue that made it impossible to function normally, both at work and in free time. All reported an excessive need for sleep, which was never refreshing even though it was prolonged (more than 12 hours). After excluding all other diseases and infections, they were all diagnosed for CFS.
Blood samples of 20 ml were taken and liver and kidney functions, the red and white hemogram, IGF-1 and IGF-BP3 determined. The patients took 1000 mg/day (corresponding to 40 mg IAA and 960 mg salt and WPC 70) of the composition of the disclosure for 4 weeks. After this, the dosage was reduced by 250 mg (corresponding to 10 mg IAA) every 2 weeks to 750 mg/day, 500 mg/day 250 mg/day, respectively. […]
At the start of the study and at each check-up point, the work participation and physical activity pattern were scored on a scale from 1 to 10 and plotted as the percentage of the patient's normal activities. […] IGF-BP3 was determined by means of an immunoassay (DSL-5600 ACTIVE™, DSL Deutschland GmbH, Germany) having an intra-assay variance of 4.4% and an inter-assay variance of 6.6%. […]

type 2 diabetic patients = test: Well-being of type 2 diabetic patients after treatment (Example 4); assay type: in vivo, human; settings: type 2 diabetes patients
Excerpt: Five male type 2 diabetic patients took part in the study. They were all very difficult to regulate. When the study started, the average HbA1c was to be approximately 9.0%. The patients had no other clinical problems. In addition, the IgF-BP3/IgF-1 ratio had to be over 10. The age of the subjects were between 45 years and 75 years with an average of 58. The period of the investigation was 6 months. At the start of the study, after 2 month, 4 months and at the end at 6 months, blood was taken. The following parameters were checked: IGF-1 and IGF-PB-3. Also, at the start, safety parameters (liver tests, hematology) were determined. Every 8 weeks, HbA1c was determined.

[2] = test system: piglets that had a history of PRRSV; test: Health condition of problem piglets (group P) with history of PRRSV treated with IAA (Example 9); assay type: in vivo, Belgian Land Race piglets; settings: after ten days of treatment
Description: The piglets were weaned at four weeks and relocated, twelve piglets per pen. IGF-1 levels from three different groups were tested at the age of five weeks.
These are the pigs with the big problems. They are looking poor, have a low weight, bad color and some of them have Staphylococcus infections. It was the firm belief of the farmer and the veterinarian that these piglets would not reach the end of the fattening cycle. Blood samples were taken at random from five of the twelve piglets.
After seeing the low IGF-1 levels in group P, it was decided to give them the same treatment as in humans with CFS. The average weight of the piglets would have been around seven kilos at five weeks of age. They were treated with 125 mg of the composition comprising 5 mg IAA and 120 mg NaCl and WPC 70 for ten days. The product was fed in a trough, mixed in liquid feed. All the piglets ate from the same trough.

athletes = test: Performance and recovery of athletes (Example 6); assay type: in vivo, human; settings: group that received IAA; 12 weeks intensive training; placebo performances decreased
Description: Twenty athletes entered the study. Other medication was excluded from the research. The period of the treatment was 12 weeks. They were not allowed to take any other medication or food supplements. They continued their level of training. After 2 weeks, the training was intensified by 25%. At baseline, at the start, after 2 weeks, 4 weeks, 6 weeks, 8 weeks, 10 weeks and 12 weeks, IGF-1 and safety parameters (liver tests, hematology) were determined. The group was divided into two groups of ten athletes. Group A received IAA; group B got a placebo.
The following schedule was used for the supplements. 1 IAA capsule contained 10 mg IAA, 100 mg NaCl, 140 mg WPC 70. One Glutamine capsule contained 500 mg glutamine. The amino acids that were taken are as described in Table 1.

IGF-1 [3] = test: IGF-1 levels in poor-growing piglets treated with IAA (Example 7); assay type: in vivo, piglets (Dutch Landrace)
Excerpt: The trial was done in a well-managed farm with 1000 sows of the Dutch Landrace. Although the farm is well run, the technical performance is not optimal. There were latent problems with mortality and with growth rates of the piglets. There are too many poor-growing piglets, without fully understanding the technical or veterinary reason. There is no clear pathology to be seen on the farm.
The farmer selected the poor-growing piglets for this weaning period. The piglets were weaned for two days at the start of the trial. There were three groups: the normal well-growing piglets, which served as a control group; the B group with 78 poor growers that are treated with 12.5 mg/kg/LW (Life Weight) IAA; and the X group with 52 poor growers that are not treated.
Blood samples for IGF-1 measuring were taken from each group at the beginning of the trial and at the end of the trial. Two pens (13 piglets) of the B and X groups were weighed at the beginning and at the end of the trial. The active ingredient IAA was mixed in dextrose. […] The B group received the treatment five days after the first IGF-1 measuring.

Substance: indole acetic acid [IAA]
- plasma IGF-1 level (mean±SD) (IGF-1 [1]; after 1 month): 29.5 ± 8.2 nmol/L
- plasma IGF-1 level (mean±SD) (IGF-1 [1]; after 5 months of treatment): 35 ± 10 nmol/L
- plasma IGF-1 level (mean±SD) (IGF-1 [1]; before treatment (baseline)): 18 ± 5 nmol/L
- how the patients felt after the treatment (type 2 diabetic patients): felt better
- Staphylococcus infection [2]: no piglets suffered from Staphylococcus infection anymore
- condition of the piglets [2]: dramatically improved
- survival [2]: All twelve pigs were still alive
- performance of athletes at the end (athletes): performed better
- IGF-1 level, 2nd measurement (IGF-1 [3]; treated group B, individual piglets, after 21 days of 12.5 mg/kg/LW IAA in feed, acetic acid, 12.5 mg/kg): 25.2 nmol/L and 28.9 nmol/L and 25.5 nmol/L and 29.9 nmol/L and 16.9 nmol/L
- IGF-1 level, 1st measurement (IGF-1 [3]; treated group B, individual piglets, beginning of the trial, before treatment, acetic acid): 3 nmol/L and 2.7 nmol/L and 6.1 nmol/L and 5.3 nmol/L and 5.7 nmol/L
- IGF-1 level, 2nd measurement, average (IGF-1 [3]; treated group B, average of 5 piglets, after 21 days of treatment, control 23.6, non-treated X 17.2, acetic acid): 25.3 nmol/L and 25.28 nmol/L
- IGF-1 level, 1st measurement, average (IGF-1 [3]; treated group B, average of 5 piglets, before treatment): 4.56 nmol/L
- effect on IGF-1 levels in poor-growing piglets (IGF-1 [3]; treatment for 14-21 days with 12.5 mg/kg/LW IAA): effectively restores IGF-1 levels
